Results from patent US20050245529A1 (Boehringer Ingelheim International GmbH, priority 2004, published 2005).
pIC50: −log10 of the molar value.

Target: T1, hMCH-1R (Homo sapiens, UniProt Q99705)
T1 construct: expressed in transfected cells; host or cells: CHO/Galpha 16 cells, stably transfected; membranes used
Assay: MCH-1 receptor binding test
Conditions: 125I-MCH binding, membranes from CHO/Galpha 16 cells stably transfected with human hMCH-1R
Description: Membranes from CHO/Galpha 16 cells stably transfected with human hMCH-1R are resuspended using a syringe (needle 0.6×25 mm) and diluted in test buffer (50 mM HEPES, 10 mM MgCl2, 2 mM EGTA, pH 7.00; 0.1% bovine serum albumin (protease-free), 0.021% bacitracin, 1 μg/mL aprotinin, 1 μg/mL leupeptin and 1 μM phosphoramidone) to a concentration of 5 to 15 μg/mL. […] After the incubation the reaction is filtered using a cell harvester through 0.5% PEI treated fiberglass filters (GF/B, Unifilter Packard). The membrane-bound radioactivity retained on the filter is then determined after the addition of scintillator substance (Packard Microscint 20) in a measuring device (TopCount of Packard). […] The analysis of the concentration binding curve is carried out on the assumption of one receptor binding site.

T1 sequence (Q99705 whole entry): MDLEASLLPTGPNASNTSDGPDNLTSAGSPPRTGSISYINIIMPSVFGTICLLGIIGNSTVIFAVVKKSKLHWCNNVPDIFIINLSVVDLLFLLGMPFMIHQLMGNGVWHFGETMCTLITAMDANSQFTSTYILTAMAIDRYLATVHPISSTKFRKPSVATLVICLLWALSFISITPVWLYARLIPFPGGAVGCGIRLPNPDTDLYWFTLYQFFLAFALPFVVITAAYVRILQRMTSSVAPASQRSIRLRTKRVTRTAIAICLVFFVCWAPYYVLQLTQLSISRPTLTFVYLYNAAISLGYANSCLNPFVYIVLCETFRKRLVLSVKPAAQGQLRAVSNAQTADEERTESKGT

Compound | pIC50
CCCN(CC1CC1)[C@H](C)/C=C(\C)c1ccc(C#Cc2ccc(-c3ccc(Cl)cc3)cn2)cc1 [Example 15.5, ((E)-(R)-3-{4-[5-(4-chlorophenyl)pyridin-2-ylethynyl]phenyl}-1-methylbut-2-enyl)cyclopropylmethylpropylamine] | 7.60
NC(=O)C1CCN([C@H]2CCN(c3ccc(C#Cc4ccc(-c5ccc(Cl)cc5)cn4)cn3)C2)CC1 [Example 6.3, (S)-1-(1-{5-[5-(4-chlorophenyl)pyridin-2-ylethynyl]pyridin-2-yl}pyrrolidin-3-yl)piperidin-4-carboxylic acid amide] | 8.43
